In patent US20130217664A1, “NOVEL COMPOUNDS USEFUL FOR THE TREATMENT OF DEGENERATIVE AND INFLAMMATORY DISEASES” (priority 2012, published 2013):
Where two headings read alike, the source gives them in different places.

Legend:
human JAK1 = target: T1, human JAK1 (Homo sapiens, UniProt P23458); assay: JAK1 inhibition assay (polyGT substrate / Ulight-JAK1 peptide); assay type: biochemical; conditions: recombinant human JAK1 catalytic domain; polyGT or Ulight-JAK1 peptide assay
T1 construct: catalytic domain, amino acids 866-1154; catalog number PV4774; purchased Invitrogen PV4774
T1 sequence (P23458 866-1154): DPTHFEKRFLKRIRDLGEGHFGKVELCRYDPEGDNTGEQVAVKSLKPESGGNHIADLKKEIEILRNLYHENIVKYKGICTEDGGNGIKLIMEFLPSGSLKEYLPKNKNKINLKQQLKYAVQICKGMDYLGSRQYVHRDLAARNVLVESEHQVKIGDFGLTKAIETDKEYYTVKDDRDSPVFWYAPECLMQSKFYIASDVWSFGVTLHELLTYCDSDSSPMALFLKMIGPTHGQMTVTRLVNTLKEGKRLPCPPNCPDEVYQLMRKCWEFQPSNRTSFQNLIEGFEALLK
Summary of the method: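 Two formats. PolyGT radiometric: 45 min at 30 °C, stopped with phosphoric acid, counted as cpm. Ulight-JAK1 peptide: 60 min at room temperature, stopped with Eu-anti-phosphotyrosine/EDTA, read as RFU. Percent inhibition normalised to vehicle and 10 μM staurosporine.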

human JAK3 = target: T2, human JAK3 (Homo sapiens, UniProt P52333); assay: JAK3 inhibition assay; assay type: biochemical; conditions: recombinant human JAK3 catalytic domain; polyGT substrate
T2 construct: catalytic domain (amino acids 781-1124; catalog number PV3855); purchased Invitrogen PV3855
T2 sequence (P52333 781-1124): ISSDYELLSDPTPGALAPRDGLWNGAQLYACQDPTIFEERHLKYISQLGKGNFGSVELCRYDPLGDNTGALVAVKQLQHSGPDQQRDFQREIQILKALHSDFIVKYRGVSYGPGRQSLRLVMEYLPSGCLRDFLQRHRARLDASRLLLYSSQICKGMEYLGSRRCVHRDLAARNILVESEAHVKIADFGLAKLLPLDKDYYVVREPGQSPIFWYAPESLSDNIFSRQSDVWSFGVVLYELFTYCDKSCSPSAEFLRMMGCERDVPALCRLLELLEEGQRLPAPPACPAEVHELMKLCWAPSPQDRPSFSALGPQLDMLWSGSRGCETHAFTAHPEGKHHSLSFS
Summary of the method: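 Radiometric kinase assay: 0.5 ng JAK3 with 2.5 μg polyGT in Tris pH 7.5/MgCl2 buffer, 1 μM ATP plus 0.25 μCi 33P-γ-ATP, 1% DMSO, 45 min at 30 °C, stopped with phosphoric acid.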

human TYK2 = target: T3, human TYK2 (Homo sapiens, UniProt P29597); assay: TYK2 inhibition assay; assay type: biochemical; conditions: recombinant human TYK2 catalytic domain, polyGT substrate
T3 construct: catalytic domain (amino acids 871-1187; catalog number 08-147); purchased Carna Biosciences 08-147
T3 sequence (P29597 871-1187): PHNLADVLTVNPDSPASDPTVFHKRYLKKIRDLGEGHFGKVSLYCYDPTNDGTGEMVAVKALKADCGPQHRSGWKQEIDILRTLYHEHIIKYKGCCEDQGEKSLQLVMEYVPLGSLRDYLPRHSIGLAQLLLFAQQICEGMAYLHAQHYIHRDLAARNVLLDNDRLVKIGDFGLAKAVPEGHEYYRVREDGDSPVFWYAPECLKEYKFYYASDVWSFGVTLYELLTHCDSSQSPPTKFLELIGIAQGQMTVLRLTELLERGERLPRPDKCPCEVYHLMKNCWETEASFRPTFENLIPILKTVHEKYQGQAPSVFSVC
Summary of the method: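 Radiometric kinase reaction run 90 min at 30 °C, stopped with phosphoric acid, washed and scintillation-counted.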

[1] = test system: pSTAT1(2)-luciferase reporter in HeLa cells triggered with human OSM; assay: JAK-STAT signalling assay; assay type: cell-based; conditions: read-out: JAK-STAT IC50
Summary of the method: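 HeLa cells transiently co-transfected with pSTAT1(2)-luciferase and LacZ control reporter, preincubated with compound 60 min, then stimulated with human OSM (33 ng/mL final) overnight at 37 °C. Luciferase read by luminescence; percent inhibition from vehicle and no-trigger controls, EC50 from dose-response.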

[2] = Homo sapiens, HeLa, HeLa cells, pSTAT1(2)-luciferase reporter, human OSM 33 ng/mL
[3] = HeLa cells, pSTAT1(2)-luciferase reporter, human OSM 33 ng/mL

Row | Structure (SMILES) | IC50 (human JAK1) [nM] | IC50 (human JAK3) [nM] | IC50 (human TYK2) [nM] | IC50 [1, 2] [nM] | IC50 [1, 3] [nM] | IC50 ([1]; Homo sapiens, HeLa) [nM]
1 | CCc1cc(C2=CCN(C(=O)C(O)C(F)(F)F)CC2)ccc1N(C)c1cc2c(cn1)ncn2C (stereo not shown) [Compound 230, 1-(4-(3-ethyl-4-(methyl(1-methyl-1H-imidazo[4,5-c]pyridin-6-yl)amino)phenyl)-5,6-dihydropyridin-1(2H)-yl)-3,3,3-trifluoro-2-hydroxypropan-1-one] | 0.01 to 100 | 0.01 to 100 | 0.01 to 100 | 1 to 500 | – | –
2 | CCc1cc(C2=CCN(C(=O)C(C)(C)O)CC2)ccc1N(C)c1cc2c(cn1)ncn2C [Compound 231, 1-(4-(3-ethyl-4-(methyl(1-methyl-1H-imidazo[4,5-c]pyridin-6-yl)amino)phenyl)-5,6-dihydropyridin-1(2H)-yl)-2-hydroxy-2-methylpropan-1-one] | 0.01 to 100 | 101 to 500 | 0.01 to 100 | 1 to 500 | – | –
3 | CCc1cc(C2=CCN(S(=O)(=O)CC(F)(F)F)CC2)ccc1N(C)c1cc2c(cn1)ncn2C [Compound 232, N-(2-ethyl-4-(1-(2,2,2-trifluoroethylsulfonyl)-1,2,3,6-tetrahydropyridin-4-yl)phenyl)-N,1-dimethyl-1H-imidazo[4,5-c]pyridin-6-amine] | 0.01 to 100 | 0.01 to 100 | 0.01 to 100 | > 1000 | – | –
4 | CCc1cc(C2=CCN(C(=O)Nc3nncs3)CC2)ccc1N(C)c1cc2c(cn1)ncn2C [Compound 234, 4-(3-Ethyl-4-(methyl(1-methyl-1H-imidazo[4,5-c]pyridin-6-yl)amino)phenyl)-N-(1,3,4-thiadiazol-5-yl)-5,6-dihydropyridine-1(2H)-carboxamide] | 0.01 to 100 | 0.01 to 100 | 0.01 to 100 | – | – | 1 to 500
5 | CCc1cc(C2CCN(C(=O)C(C)O)CC2)ccc1N(C)c1cc2c(cn1)ncn2C (stereo not shown) [Compound 235, 1-(4-(3-ethyl-4-(methyl(1-methyl-1H-imidazo[4,5-c]pyridin-6-yl)amino)phenyl)piperidin-1-yl)-2-hydroxypropan-1-one] | 0.01 to 100 | 101 to 500 | 0.01 to 100 | – | 501 to 1000 | –
6 | CCc1cc(-c2cnn(Cc3cccc(OC)c3)c2)ccc1N(C)c1cc2c(cn1)ncn2C [Compound 236, N-(2-ethyl-4-(1-(3-methoxybenzyl)-1H-pyrazol-4-yl)phenyl)-N,1-dimethyl-1H-imidazo[4,5-c]pyridin-6-amine] | 0.01 to 100 | 0.01 to 100 | 0.01 to 100 | 1 to 500 | – | –
7 | CCc1cc(-c2cnn(Cc3ccc(C)cc3)c2)ccc1N(C)c1cc2c(cn1)ncn2C [Compound 237, N-(2-ethyl-4-(1-(4-methylbenzyl)-1H-pyrazol-4-yl)phenyl)-N,1-dimethyl-1H-imidazo[4,5-c]pyridin-6-amine] | 0.01 to 100 | 101 to 500 | 0.01 to 100 | 1 to 500 | – | –
8 | CCc1cc(-c2cnn(Cc3ccc(F)cc3)c2)ccc1N(C)c1cc2c(cn1)ncn2C [Compound 238, N-(2-ethyl-4-(1-(4-fluorobenzyl)-1H-pyrazol-4-yl)phenyl)-N,1-dimethyl-1H-imidazo[4,5-c]pyridin-6-amine] | 0.01 to 100 | 101 to 500 | 0.01 to 100 | 1 to 500 | – | –
9 | CCc1cc(CNC(=O)NC#N)ccc1N(C)c1cc2c(cn1)ncn2C [Compound 258, 1-{3-Ethyl-4-[methyl-(1-methyl-1H-imidazo[4,5-c]pyridin-6-yl)-amino]-benzyl}-3-cyano-urea] | 0.01 to 100 | 101 to 500 | 101 to 500 | – | – | > 1000

Now from value to compound, other results behind:

Row | IC50 (human JAK1) [nM] | IC50 (human JAK3) [nM] | IC50 (human TYK2) [nM] | IC50 [1, 2] [nM] | IC50 [1, 3] [nM] | Structure (SMILES) | IC50 ([1]; Homo sapiens, HeLa) [nM]
10 | 0.01 to 100 | 101 to 500 | 101 to 500 | 1 to 500 | – | CCc1cc(-c2cnn(Cc3ccc(Cl)cc3)c2)ccc1N(C)c1cc2c(cn1)ncn2C [Compound 239, N-(4-(1-(4-chlorobenzyl)-1H-pyrazol-4-yl)-2-ethylphenyl)-N,1-dimethyl-1H-imidazo[4,5-c]pyridin-6-amine] | –
11 | 0.01 to 100 | 501 to 1000 | 0.01 to 100 | 501 to 1000 | – | CCCn1cc(-c2ccc(N(C)c3cc4c(cn3)ncn4C)c(CC)c2)cn1 [Compound 240, N-(2-ethyl-4-(1-propyl-1H-pyrazol-4-yl)phenyl)-N,1-dimethyl-1H-imidazo[4,5-c]pyridin-6-amine] | –
12 | 0.01 to 100 | 101 to 500 | 101 to 500 | 1 to 500 | – | CCc1cc(-c2cnn(CC)c2)ccc1N(C)c1cc2c(cn1)ncn2C [Compound 241, N-(2-ethyl-4-(1-ethyl-1H-pyrazol-4-yl)phenyl)-N,1-dimethyl-1H-imidazo[4,5-c]pyridin-6-amine] | –
13 | 0.01 to 100 | 501 to 1000 | 101 to 500 | – | > 1000 | CCc1cc(-c2cnn(CC3(C)COC3)c2)ccc1N(C)c1cc2c(cn1)ncn2C [Compound 242, N-(2-ethyl-4-(1-((3-methyloxetan-3-yl)methyl)-1H-pyrazol-4-yl)phenyl)-N,1-dimethyl-1H-imidazo[4,5-c]pyridin-6-amine] | –
14 | 0.01 to 100 | 0.01 to 100 | 0.01 to 100 | 1 to 500 | – | CCc1cc(C2=CCN(S(=O)(=O)C(C)C)CC2)ccc1N(C)c1cc2c(cn1)ncn2C [Compound 246, N-(2-ethyl-4-(1-(isopropylsulfonyl)-1,2,3,6-tetrahydropyridin-4-yl)phenyl)-N,1-dimethyl-1H-imidazo[4,5-c]pyridin-6-amine] | –
15 | 0.01 to 100 | 0.01 to 100 | 0.01 to 100 | 1 to 500 | – | CCc1cc(C2=CCN(S(=O)(=O)CC#N)CC2)ccc1N(C)c1cc2c(cn1)ncn2C [Compound 247, 2-(4-(3-ethyl-4-(methyl(1-methyl-1H-imidazo[4,5-c]pyridin-6-yl)amino)phenyl)-5,6-dihydropyridin-1(2H)-ylsulfonyl)acetonitrile] | –
16 | 0.01 to 100 | 0.01 to 100 | 0.01 to 100 | 1 to 500 | – | CCc1cc(C2=CCN(C(=O)C(C)NC(=O)OC(C)(C)C)CC2)ccc1N(C)c1cc2c(cn1)ncn2C (stereo not shown) [Compound 249, tert-butyl 1-(4-(3-ethyl-4-(methyl(1-methyl-1H-imidazo[4,5-c]pyridin-6-yl)amino)phenyl)-5,6-dihydropyridin-1(2H)-yl)-1-oxopropan-2-ylcarbamate] | –
17 | 0.01 to 100 | 501 to 1000 | 0.01 to 100 | 1 to 500 | – | CCc1cc(C2=CCN(C(=O)C(C)OC)CC2)ccc1N(C)c1cc2c(cn1)ncn2C (stereo not shown) [Compound 250, 1-(4-(3-ethyl-4-(methyl(1-methyl-1H-imidazo[4,5-c]pyridin-6-yl)amino)phenyl)-5,6-dihydropyridin-1(2H)-yl)-2-methoxypropan-1-one] | –
18 | 0.01 to 100 | 101 to 500 | 0.01 to 100 | 1 to 500 | – | CCc1cc(C2=CCN(C(=O)[C@H](C)O)CC2)ccc1N(C)c1cc2c(cn1)ncn2C [Compound 251, (S)-1-(4-(3-ethyl-4-(methyl(1-methyl-1H-imidazo[4,5-c]pyridin-6-yl)amino)phenyl)-5,6-dihydropyridin-1(2H)-yl)-2-hydroxypropan-1-one] | –
19 | 0.01 to 100 | 101 to 500 | 101 to 500 | > 1000 | – | CCc1cc(CNC(=O)CC#N)ccc1N(C)c1cc2c(cn1)ncn2C [Compound 255, 2-cyano-N-(3-ethyl-4-(methyl(1-methyl-1H-imidazo[4,5-c]pyridin-6-yl)amino)benzyl)acetamide] | –
20 | 0.01 to 100 | 0.01 to 100 | 0.01 to 100 | 1 to 500 | – | CCc1cc(C2=CCN(C(=O)Nc3ncns3)CC2)ccc1N(C)c1cc2c(cn1)ncn2C [Compound 257, 4-(3-Ethyl-4-(methyl(1-methyl-1H-imidazo[4,5-c]pyridin-6-yl)amino)phenyl)-N-(1,2,4-thiadiazol-5-yl)-5,6-dihydropyridine-1(2H)-carboxamide] | –
21 | 0.01 to 100 | 501 to 1000 | 101 to 500 | 501 to 1000 | – | CCc1cc(O[C@@H]2CCN(S(C)(=O)=O)C2)ccc1N(C)c1cc2c(cn1)ncn2C [Compound 259, (R)-N-(2-ethyl-4-(1-(methylsulfonyl)pyrrolidin-3-yloxy)phenyl)-N,1-dimethyl-1H-imidazo[4,5-c]pyridin-6-amine] | –
22 | 501 to 1000 | > 1000 | > 1000 | – | > 1000 | COc1cc(-c2cnn(C)c2)ncc1N(C)c1cc2c(cn1)ncn2C [Compound 263, N-(4-methoxy-6-(1-methyl-1H-pyrazol-4-yl)pyridin-3-yl)-N,1-dimethyl-1H-imidazo[4,5-c]pyridin-6-amine] | –
